Experimental findings from patent US10172814B2, “Substituted pyridyl-cycloalkyl-carboxylic acids, compositions containing them and medical uses thereof” (BAYER PHARMA AKTIENGESELLSCHAFT, priority 2014, dated 2019) are described below.

A short description of data set [1]: Unbound plasma concentration in human KI mice of the CFA model. The data set is classed as in vivo. The note with it: female, human PTGES knock-in (humanized KI, transgenic) mice, mouse, read-out: Plasma concentration Cplasma-unbound. The procedure: At termination of the experiments (48 h after CFA, 1 h after dose), hind paw tissue is collected for analysis of PGE2 levels (ELISA, Cayman Chemical item no. 514531). […] Statistical analysis is performed with one-way analysis of variance, followed by Bonferroni's multiple comparison test vs. vehicle controls using the GraphPad PRISM software, *p<0.05, **p<0.01.

Data set [2] relates to CFA induced PGE2 release in the ipsilateral inflamed hind paw of human KI mice (expressing human PTGES). The data set can be described thus: PGE2 measurements in CFA inflammation model using humanized KI mice. The data set is classed as in vivo. The note with it: for % inhibition of PGE2 in vivo vs vehicle: p.o., single dose, hind paw 48 h after CFA, 1 h after dose; for inhibition of CFA-induced PGE2 formation/release in the hind paw: single oral dosing, hu KI mice. The procedure: PGE2 Measurements in CFA Inflammation Model Using Humanized KI Mice
Female transgenic mice expressing the human PTGES enzyme (Taconic, Xu et al. 2008) received intraplantar injection of complete Freund's adjuvant (CFA) (30 μl, 1 mg/ml, Sigma) into the left hind paw under isoflurane anesthesia. […] At termination of the experiments (48 h after CFA, 1 h after dose), hind paw tissue is collected for analysis of PGE2 levels (ELISA, Cayman Chemical item no. 514531). […] Statistical analysis is performed with one-way analysis of variance, followed by Bonferroni's multiple comparison test vs. vehicle controls using the GraphPad PRISM software, *p<0.05, **p<0.01.

Data set [3] relates to CFA-induced pain behavior in WT mice. The data set can be described thus: CFA inflammation model with pain read out (dynamic weight bearing). The data set is classed as in vivo. The note with it: single oral dosing on day 2 post-CFA, example 17: 30, 100 mg/kg, example 44: 30, 75 mg/kg. The procedure:
Efficacy in CFA Inflammation Model with Pain Read Out
Wild type (WT) female c57bl/6 mice (Taconic) received intraplantar injection of complete Freund's adjuvant (CFA) (30 μl, 1 mg/ml, Sigma) into the left hind paw under isoflurane anesthesia. […] Spontaneous pain-related behavior in freely moving animals was assessed using the automated dynamic weight bearing device (DWB, Bioseb, France) according to published and validated protocols: Robinson I, Sargent B, Hatcher J P, Neurosci Lett. 2012 Aug. 30; 524(2):107-10. Use of dynamic weight bearing as a novel end-point for the assessment of Freund's Complete Adjuvant induced hypersensitivity in mice; Tétreault P, Dansereau M A, Doré-Savard L, Beaudet N, Sarret P. Physiol Behav. 2011 Sep. […] 2014 Jul. 30; 232:118-24. Use of dynamic weight bearing as a novel end-point for the assessment of abdominal pain in the LPS-induced peritonitis model in the rat. For behavioral testing, the animal was placed inside a Plexiglas chamber and allowed to move freely within the apparatus for a 5 min period, subsequently pain behavior is recorded for a test period of another 5 min.
Statistical analysis is performed with one-way analysis of variance, followed by Bonferroni's multiple comparison test vs. vehicle controls using the GraphPad PRISM software, *p<0.05, **p<0.01.

A further data set deals with human PTGES (Homo sapiens (Human), UniProt O14684). The data set can be described thus: Human PTGES biochemical enzyme inhibition assay (conversion of PGH2 to PGE2, TR-FRET). In a few lines:
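FLAG-tagged human PTGES from Hi-5 insect cells preincubated 15–20 min with compound in pH 7.2 phosphate buffer with 2.5 mM reduced glutathione; reaction started with 8 nM PGH2 final, stopped with SnCl2/KF.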

In data set [4] the test system is vaginal hyperalgesia and proliferation in endometriotic lesions. The data set can be described thus: Endometriosis disease model (dyspareunia model). The data set is classed as in vivo, rat. The following applies: 0.75 mg/kg, bid, p.o. From the text: Endometriosis Disease Model (Dyspareunia Model)
Female SD rats underwent endometriosis surgery in the estrus phase. 4 uterine fragments were sewn onto the mesenteric artery arc (closed to small intestine) and few other fragments (>2) were sewn onto the distal colonic wall. In parallel electrodes for later Electromyography (EMG) recordings were implanted in the abdominal wall to allow recording of the visceral motor response. After training viscero-motor response (VMR)/vaginal distension (VD) testing was performed 5 and 6 weeks post-surgery in the proestrus phase. For vaginal distension session, the uninflated balloon was lubricated and inserted into the mid-vaginal canal, located so, that it would not touch the cervix even when inflated. Inflating the balloon with different volumes of water using a computer-controlled pump distended the vaginal canal. In parallel, EMG recordings were collected to measure the VMR related to the distension. At 6 weeks, post-surgery endometriotic lesions and endometrium were excised to perform lesion analysis. RNA expression analysis was performed of lesions and endometrium. RNA of lesions and endometrium was isolated after homogenization of tissues in guanidinium thiocyanate using the RNeasy mini Kit (Qiagen) with DNase digestion. One microgram of RNA was reversely transcribed with random hexamers using the SuperScript III First-Strand Synthesis System (Invitrogen). Real-time Taqman PCR analysis was performed using the 7900HT Real Time PCR-System (Applied Biosystems). Prevalidated probes and primers for Mki67 (antigen identified by monoclonal antibody Ki-67; catalog No. Rn01451446_m1) and the endogenous control TBP* (see FIG. 1A; TATA box binding protein; catalog No. Rn01455646_m1) were purchased from Applied Biosystems. Relative mRNA levels were calculated using the comparative […]CT method using the RQ-Manager software (Applied Biosystems).
Example 17 (0.75 mg/kg, bid, p.o.) was administered twice daily starting end of week 2 post surgery until week 5 post surgery.

[5] abbreviates: Enzymatic conversion of PGH2 to PGE2, read-out: Human PTGES IC50.
[6] abbreviates: human PTGES, as listed in Table 2, read-out: hu IC50 biochem.

Like-named read-outs stand apart in the source and are kept apart here.

Chain of human PTGES (O14684 whole entry): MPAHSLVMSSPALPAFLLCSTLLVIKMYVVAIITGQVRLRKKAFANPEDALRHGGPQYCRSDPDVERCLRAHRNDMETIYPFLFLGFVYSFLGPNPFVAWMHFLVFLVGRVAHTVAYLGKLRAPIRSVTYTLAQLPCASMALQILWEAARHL

In the case of `Cc1c(CCC(=O)O)cccc1NC(=O)C(c1ccc(-c2cncc(Cl)c2)c(F)c1)C1CCCC1` (single isomer, unassigned; (-)) [Example 44, (−) 3-[3-({[4-(5-Chloropyridin-3-yl)-3-fluorophenyl](cyclopentyl)acetyl}amino)-2-methylphenyl]propanoic acid], the concentration at 1 h in data set [1] (plasma, oral, 1 mg/kg) was 15 nM; in data set [1] (plasma, oral, 3 mg/kg) it was 47 nM; in data set [1] (plasma, oral, 10 mg/kg) it was 173 nM. In addition, the entries for the “% inhibition of PGE2 in vivo vs vehicle” value in data set [2] (1 mg/kg), in data set [2] (3 mg/kg) and in data set [2] (10 mg/kg) were 95%, 65% and 100%, respectively. For the same compound, in data set [2], the “inhibition of CFA-induced PGE2 formation/release in the hind paw” value was “strong efficacy”. Besides, the “pain behavior as assessed by DWB after CFA-induced inflammation” value in data set [3] was “significantly and dose-dependently reduced pain behavior”.
As a reminder, the IC50 is the midpoint of a concentration-inhibition curve. Turning to `Cc1c(CCC(=O)O)cccc1NC(=O)C(c1ccc(-c2cncc(C(F)(F)F)c2)c(F)c1)C1CCCC1` (single isomer, unassigned; (-)) [Example 48, (−) 3-{3-[(Cyclopentyl{3-fluoro-4-[5-(trifluoromethyl)pyridin-3-yl]phenyl}acetyl)amino]-2-methylphenyl}propanoic acid], the figures for the half-inhibitory concentration (IC50) at human PTGES (setting [5]) and at human PTGES (setting [6]) were 14.2 nM and 3 nM, respectively. Besides, the concentration at 1 h in data set [1] (in vivo, 1 mg/kg) turned out to be 11 nM; in data set [1] (in vivo, 3 mg/kg), 32 nM; in data set [1] (in vivo, 10 mg/kg), 88 nM. The “% inhibition of PGE2 in vivo vs vehicle” value in data set [2] (1 mg/kg) was 38%; in data set [2] (3 mg/kg), 74%; in data set [2] (10 mg/kg), 78%.
Regarding `Cc1c(CCC(=O)O)cccc1NC(=O)C(c1ccc(-c2cncc(C(F)(F)F)c2)cc1)C1CCC1` (single isomer, unassigned; (-)) [Example 55, (−) 3-{3-[(Cyclobutyl{4-[5-(trifluoromethyl)pyridin-3-yl]phenyl}acetyl)amino]-2-methylphenyl}propanoic acid], the results for the IC50 at human PTGES (setting [5]) and on human PTGES (setting [6]) were 35.4 nM and 27 nM, respectively. Also, the concentration at 1 h in data set [1] (in vivo, 1 mg/kg) is 34 nM; in data set [1] (in vivo, 3 mg/kg) it was 103 nM; in data set [1] (in vivo, 10 mg/kg) it was 322 nM. The “% inhibition of PGE2 in vivo vs vehicle” value in data set [2] (1 mg/kg) is listed as 84%; in data set [2] (3 mg/kg), 93%; in data set [2] (10 mg/kg), 96%.
As for `Cc1c(NC(=O)C(c2ccc(-c3cncc(Cl)c3)cc2)C2CCCC2)cccc1C(C)CC(=O)O` (single isomer, unassigned; stereoisomer 2) [Example 87, 3-[3-({[4-(5-Chloropyridin-3-yl)phenyl](cyclopentyl)acetyl}amino)-2-methylphenyl]butanoic acid, Stereoisomer 2], the concentration at 1 h in data set [1] (plasma, oral, 1 mg/kg) was 25 nM; in data set [1] (plasma, oral, 3 mg/kg) it was 75 nM; in data set [1] (plasma, oral, 10 mg/kg), 172 nM. Further, the results for the “% inhibition of PGE2 in vivo vs vehicle” value in data set [2] (1 mg/kg), in data set [2] (3 mg/kg) and in data set [2] (10 mg/kg) were 43%, 65% and 67%, respectively.
In the case of `Cc1c(CCC(=O)O)cccc1NC(=O)[C@@H](c1ccc(-c2cncc(C(F)(F)F)c2)cc1)C1CCCC1` [Example 2, (−) (R) 3-{3-[(Cyclopentyl{4-[5-(trifluoromethyl)pyridin-3-yl]phenyl}acetyl)amino]-2-methylphenyl}propanoic acid], the concentration at 1 h in data set [1] (plasma, oral, 1 mg/kg) was 21 nM; in data set [1] (plasma, oral, 3 mg/kg) it was 62 nM; in data set [1] (plasma, oral, 10 mg/kg), 190 nM. The “% inhibition of PGE2 in vivo vs vehicle” value in data set [2] (1 mg/kg) came out at 37%; in data set [2] (3 mg/kg) it was 75%; in data set [2] (10 mg/kg), 94%.
`Cc1c(CCC(=O)O)cccc1NC(=O)[C@@H](c1ccc(-c2cncc(Cl)c2)cc1)C1CCCC1` [Example 17, (−) (R) 3-[3-({[4-(5-Chloropyridin-3-yl)phenyl](cyclopentyl)acetyl}amino)-2-methylphenyl]propanoic acid]: the IC50 came out at 35.2 nM on human PTGES (setting [5]) and 35 nM on human PTGES (setting [6]). Besides, the concentration at 1 h in data set [1] (plasma, oral, 10 mg/kg) was 380 nM. Moreover, in data set [2] (10 mg/kg), the “% inhibition of PGE2 in vivo vs vehicle” value worked out at 88%. Moreover, in data set [2], the “inhibition of CFA-induced PGE2 formation/release in the hind paw” value is “strong efficacy”. Also, the “pain behavior as assessed by DWB after CFA-induced inflammation” value in data set [3] is “significantly and dose-dependently reduced pain behavior”. Further, the “vaginal hyperalgesia versus vehicle-treated animals” value in data set [4] (end of week 2 until week 5 post surgery, rats) is recorded as “significantly decreased vaginal hyperalgesia”. For the same compound, the “proliferation in lesions (gene expression of proliferation marker Ki67 vs. housekeeping control)” value in data set [4] (Taqman in week 6) is recorded as “significantly reduced proliferation in lesions”. Further, the “vaginal hyperalgesia effect in the treatment free period” value in data set [4] (treatment free period of week 6) was “effect was maintained”.
As to `O=C(O)CCc1cccc(NC(=O)[C@@H](c2ccc(-c3cncc(C(F)(F)F)c3)cc2)C2CCCC2)c1C(F)(F)F` [Example 215, 3-[3-{[(2R)-2-cyclopentyl-2-{4-[5-(trifluoromethyl)pyridin-3-yl]phenyl}acetyl]amino}-2-(trifluoromethyl)phenyl]propanoic acid], the IC50 on human PTGES (setting [5]) amounted to 258 nM.
